Assay results taken from US20110217324A1, “INHIBITORS OF ANTIGEN PRESENTATION BY MHC CLASS II MOLECULES AND METHODS OF USE THEREOF” (priority 2007, published 2011).
Numbered stars: 1 amine (or outer) side, 2 acyl side, 3 side chain; on linkers, the order of the positions; unused ones are H or OH. Square brackets hold non-standard residues; d marks the D form. Peptide text beside a SMILES is read from it. * marks the point of attachment. Phe(3,4-Cl2) = N[C@@H](Cc1ccc(Cl)c(Cl)c1)C(=O)O; X1 = O=C(C(Cc1ccc2[nH]c3ccccc3c2c1)N[*:1])[*:2]; X8 = Nc1nc(C[C@H](N[*:1])C(=O)[*:2])c[nH]1; X5 = O=C(C(Cc1cccc2[nH]ccc12)N[*:1])[*:2]; Oic = O=C(O)[C@@H]1C[C@@H]2CCCC[C@@H]2N1; Phe(4-F) = N[C@@H](Cc1ccc(F)cc1)C(=O)O; Gly(cPent) = N[C@H](C(=O)O)C1CCCC1; Lys(Me2) = CN(C)CCCC[C@H](N)C(=O)O; Igl = N[C@H](C(=O)O)C1Cc2ccccc2C1; hCit = NC(=O)NCCCC[C@H](N)C(=O)O; Tic = O=C(O)[C@@H]1Cc2ccccc2CN1; Cit = NC(=O)NCCC[C@H](N)C(=O)O; Chg = N[C@H](C(=O)O)C1CCCCC1; X3 = c1cc2cc(CCN*)ccc2[nH]1; X6 = c1ccc2[nH]c(CCN*)cc2c1; Pip = O=C(O)[C@@H]1CCCCN1; Abu = CC[C@H](N)C(=O)O; Sar = CNCC(=O)O

Each compound was assayed against T1, MHC DR2 (DRB1*1501/DRA*0101) (Homo sapiens, UniProt P01903+P01911) (assay: HLA II Binding Assay (competition with biotinylated reference peptide)). Details: purified HLA-DR, biotinylated reference compound for DRB1*1501, 37° C. 24 h to 72 h; read-out: Inhibition of peptide binding IC50 (against MHC DR2 (DRB1*1501/DRA*0101)).
T1 construct: endogenous in cells; host or cells: EBV homozygous (B lymphoblastoid) cell lines
Description: EBV homozygous cell lines are used as sources of human HLA class II molecules. […] The supernatant from lysed cells after centrifugation (100,000 g for 1 h) is applied to Sepharose 4B and protein A-Sepharose 4B columns and then to the specific antibody column. […] Fractions are immediately neutralized to pH 7 with 2 mM Tris-HCl (pH 6.8) and extensively dialyzed against 1 mM n-dodecyl β-D-maltoside, 150 mM NaCl, 10 mM phosphate (pH 7) buffer.
Samples (100 μl per well) are incubated in 96-wells polypropylene plates at 37° C. for 24 h to 72 h. After neutralization with 50 μl of 450 mM Tris HCl pH 7.5, 0.003% thimerosal, 0.3% BSA, 1 mM n-dodecyl β-D-maltoside buffer, samples are applied to 96-well maxisorp ELISA plates previously coated with 10 μg/ml L243 Mab and saturated with 100 mM Tris HCl pH=7.5, 0.3% BSA, and 0.003% thimerosal buffer. Samples are allowed to bind to the antibody-coated plates for 2 h at room temperature. Bound biotinylated compound is detected by incubating streptavidin-alkaline phosphatase conjugate, and after washings, by the addition of 4-methylumbelliferyl phosphate substrate. […] Maximal binding is determined by incubating the biotinylated peptide with the MHC class II molecule in the absence of competitor. Binding specificity is assessed by adding an excess of non-biotinylated peptide.

IC50 [µM]	Structure (SMILES)
0.01 to 0.1	CC(=O)N[C@H](C(=O)N[C@H](C(=O)N[C@@H](Cc1c[nH]c(N)n1)C(=O)N1Cc2ccccc2C[C@H]1C(=O)N[C@@H](Cc1ccccc1)C(N)=O)C1CCCCC1)C(C)C [AcV(Chg)(2-amino His)(Tic)F] (Ac-V[Chg][X8][Tic]F-NH2)
0.001 to 0.01	CNCC(=O)N[C@H](C(=O)N[C@H](C(=O)N[C@@H](CCCNC(=N)N)C(=O)N1Cc2ccccc2C[C@H]1C(=O)N[C@@H](Cc1ccccc1)C(N)=O)C1CCCCC1)C(C)C [(NH2-Sar)V(Chg)R(Tic)F] (H-[Sar]V[Chg]R[Tic]F-NH2)
0.001 to 0.01	CC(=O)N[C@H](C(=O)N[C@H](C(=O)N[C@@H](CCCNC(=N)N)C(=O)N1Cc2ccccc2C[C@H]1C(=O)NC(Cc1cccc2[nH]ccc12)C(N)=O)C1CCCCC1)C(C)C (stereo partly shown) [AcV(Chg)R(Tic)-(4′-Indolyl Ala)] (Ac-V[Chg]R[Tic][X5]-NH2)
0.01 to 0.1	CC(=O)N[C@H](C(=O)N[C@@H](CCCCN(C)C)C(=O)N1Cc2ccccc2C[C@H]1C(=O)N[C@@H](Cc1ccccc1)C(=O)N1CCCC[C@H]1C(N)=O)C1CCCC1 [Ac(Cpg)(diMeK)(Tic)F(homo Pro)] (Ac-[Gly(cPent)][Lys(Me2)][Tic]F[Pip]-NH2)
0.001 to 0.01	CC(=O)N[C@H](C(=O)N[C@H](C(=O)N[C@@H](CCCCNC(N)=O)C(=O)N1Cc2ccccc2C[C@H]1C(=O)N[C@@H](Cc1ccccc1)C(N)=O)C1CCCCC1)C(C)C [AcV(Chg)(homo Cit)(Tic)F] (Ac-V[Chg][hCit][Tic]F-NH2)
0.1 to 1	CC(=O)N[C@H](C(=O)N[C@H](C(=O)N[C@@H](CCCNC(=N)N)C(=O)N1[C@H](C(=O)N[C@@H](Cc2ccccc2)C(N)=O)C[C@@H]2CCCC[C@@H]21)C1CCCCC1)C(C)C [AcV(Chg)R(Oic)F] (Ac-V[Chg]R[Oic]F-NH2)
0.01 to 0.1	CC(=O)N[C@H](C(=O)N[C@@H](CCCNC(=N)N)C(=O)N1Cc2ccccc2C[C@H]1C(=O)N[C@@H](Cc1c[nH]c2ccccc12)C(N)=O)C1CCCCC1 [Ac(Chg)R(Tic)(Trp)] (Ac-[Chg]R[Tic]W-NH2)
0.001 to 0.01	CC[C@H](N)C(=O)N[C@H](C(=O)N[C@H](C(=O)N[C@@H](CCCNC(N)=O)C(=O)N1Cc2ccccc2C[C@H]1C(=O)N[C@@H](Cc1ccccc1)C(N)=O)C1CCCCC1)C(C)C [(NH2-Abu)V(Chg)(Cit)(Tic)F] (H-[Abu]V[Chg][Cit][Tic]F-NH2)
0.001 to 0.01	CC(=O)N[C@H](C(=O)N[C@H](C(=O)N[C@@H](CCCNC(=N)N)C(=O)N1Cc2ccccc2C[C@H]1C(=O)N[C@@H](Cc1ccc(F)cc1)C(N)=O)C1CCCCC1)C(C)C [AcV(Chg)R(Tic)(4′-F Phe)] (Ac-V[Chg]R[Tic][Phe(4-F)]-NH2)
0.1 to 1	CC(=O)N[C@H](C(=O)N[C@H](C(=O)N[C@@H](CCCNC(=N)N)C(=O)N1Cc2ccccc2C[C@H]1C(=O)NCCc1cc2ccccc2[nH]1)C1CCCCC1)C(C)C [AcV(Chg)R(Tic)(2-ethylaminoindole)] (Ac-V[Chg]R[Tic]-X6)
0.1 to 1	CC(=O)N[C@H](C(=O)N[C@H](C(=O)N[C@@H](CCCNC(=N)N)C(=O)N1Cc2ccccc2C[C@H]1C(=O)NC(Cc1ccc2[nH]c3ccccc3c2c1)C(N)=O)C1CCCCC1)C(C)C (stereo partly shown) [AcV(Chg)R(Tic)-(3′-Carbazolyl Ala)] (Ac-V[Chg]R[Tic][X1]-NH2)
0.001 to 0.01	CNC(=O)[C@H](Cc1ccccc1)NC(=O)[C@@H]1Cc2ccccc2CN1C(=O)[C@H](CCCNC(=N)N)NC(=O)[C@@H](NC(=O)[C@@H](NC(C)=O)C(C)C)C1Cc2ccccc2C1 [AcV(Indgly)R(Tic)F-CONHMe] (Ac-V[Igl]R[Tic]F-NHMe)
0.1 to 1	CC(=O)N[C@H](C(=O)N[C@H](C(=O)N[C@@H](CCCNC(=N)N)C(=O)N1Cc2ccccc2C[C@H]1C(=O)NCCc1ccc2[nH]ccc2c1)C1CCCCC1)C(C)C [AcV(Chg)R(Tic)(5-ethylaminoindole)] (Ac-V[Chg]R[Tic]-X3)
0.01 to 0.1	CC(=O)N[C@H](C(=O)N[C@H](C(=O)N[C@@H](C)C(=O)N1Cc2ccccc2C[C@H]1C(=O)N[C@@H](Cc1ccccc1)C(N)=O)C1CCCCC1)C(C)C [AcV(Chg)A(Tic)F] (Ac-V[Chg]A[Tic]F-NH2)
0.001 to 0.01	CC(=O)N[C@H](C(=O)N[C@H](C(=O)N[C@@H](CCCNC(=N)N)C(=O)N1Cc2ccccc2C[C@H]1C(=O)N[C@@H](Cc1ccc(Cl)c(Cl)c1)C(N)=O)C1CCCCC1)C(C)C [AcV(Chg)R(Tic)(3,4-dichloro Phe)] (Ac-V[Chg]R[Tic][Phe(3,4-Cl2)]-NH2)
0.01 to 0.1	CC(=O)N[C@H](C(=O)N[C@H](C(=O)N[C@@H](CCCNC(=N)N)C(=O)N1Cc2ccccc2C[C@H]1C(=O)N[C@@H](Cc1ccccc1)C(N)=O)C1CCCCC1)[C@@H](C)O [Ac(Thr)(Chg)R(Tic)F] (Ac-T[Chg]R[Tic]F-NH2)
